Reference: patent US20250382373A1, “ANTI-EGFR/MET ANTIBODIES AND USES THEREOF” (Biocytogen Pharmaceuticals (Beijing) Co., Ltd., priority 2022, published 2025)

Legend:
SNU-5 cells = assay: Internalization (endocytosis) in SNU-5 cells, pHAb secondary antibody, flow cytometry; format: cell-based, human; conditions: 2.5 μg/ml, 1 hour
Procedure: Anti-EGFR antibodies (2.5 μg/ml) and pHAb-Goat Anti-Human IgG secondary antibody (Promega (Beijing) Biotech Co., Ltd., Cat #: G9845) were added to SNU-5 cells (ATCC, Reference No.: CRL-5973). After incubating at 37° C. and 5% CO2 for 1 hour, the cells were centrifuged and washed with FACS buffer. The mean fluorescence intensity (MFI) values were measured using a flow cytometer, and the endocytosis rates of the anti-EGFR antibodies were calculated.
Anti-MET antibodies ([…]) and pHAb-GoatAnti-Human IgG Antibody (Promega (Beijing) Biotech Co., Ltd., Cat #: G9845) were added to SUN-5 cells. After incubating for 1 hour, the cells were centrifuged and washed with FACS buffer. The MFI values were measured using a flow cytometer, and the endocytosis rates of the anti-MET antibodies were calculated.
The secondary antibody used in the experiment was: pHAb-AffiniPure Fab Fragment Goat Anti-Human IgG (Jackson Immuno Research, Cat #: 109-007-008).

human MET (hMET-His) [1] = molecular target: T1, human MET (hMET-His) (Homo sapiens, UniProt P08581); assay: SPR binding affinity of anti-MET antibodies to hMET-His
T1 construct: His; purchased ACROBiosystems Inc. MET-H5227
From the text: (§1) In another similar experiment, the binding affinity of anti-MET antibodies M-6D12, M-6E6, M-7D3, M-819, M-8E2 and M-8H10 to hMET-His, fasMET-His or dMET-His (His-tagged dog MET, Sino, Cat #:70008-D08H) was verified. Telisotuzumab analog was used as a positive control.

monkey MET (fasMET-His) [2] = assay: SPR binding affinity of anti-MET antibodies to fasMET-His
From the text: as §1

dog MET (dMET-His) = molecular target: T2, dog MET (dMET-His) (Canis lupus familiaris, UniProt Q75ZY9); assay: SPR binding affinity of anti-MET antibodies to dMET-His
T2 construct: His; purchased Sino 70008-D08H
From the text: as §1

HCC827 cells = assay: Internalization of antibodies targeting EGFR and/or MET in HCC827 cells; format: cell-based, human; conditions: HCC827, 1 hour
Procedure: (§2) Anti-EGFR antibodies, anti-MET antibodies, or anti-EGFR/MET bispecific antibodies, together with the pHAb-Goat anti-human IgG secondary antibody were added to NCI-H1975 cells (ATCC, Reference No.: CRL-5908), HCC827 cells (ATCC, Reference No.: CRL-2868) and NCI-H292 (ATCC, Reference No.: CRL-1848) cells, respectively, and incubated for 1 hour. The cells were centrifuged and washed with FACS buffer. MFI was measured using a flow cytometer. Endocytosis rates of antibodies were calculated. For isotype control (ISO), an antibody targeting an irrelevant target protein was used.

NCI-H292 cells = assay: Internalization of antibodies targeting EGFR and/or MET in NCI-H292 cells; format: cell-based, human; conditions: NCI-H292, 1 hour
Procedure: as §2

[3] = molecular target: monkey EGFR (fasEGFR-His); assay: SPR binding activity of anti-EGFR/MET bispecific antibodies to fasEGFR-His; conditions: Table 15
From the text: (§3) Dissociation was monitored for 400 seconds.

human MET (hMET-His) [4] = molecular target: T1, human MET (hMET-His); assay: SPR binding activity of anti-EGFR/MET bispecific antibodies to hMET-His; conditions: Table 15
From the text: as §3

monkey MET (fasMET-His) [5] = assay: SPR binding activity of anti-EGFR/MET bispecific antibodies to fasMET-His; conditions: Table 15
From the text: as §3

human EGFR (hEGFR-His) = human EGFR (hEGFR-His) (Homo sapiens, UniProt P00533); assay: SPR binding activity of anti-EGFR/MET bispecific antibodies to hEGFR-His; conditions: Table 15

T1 sequence (P08581 25-932 limits assumed): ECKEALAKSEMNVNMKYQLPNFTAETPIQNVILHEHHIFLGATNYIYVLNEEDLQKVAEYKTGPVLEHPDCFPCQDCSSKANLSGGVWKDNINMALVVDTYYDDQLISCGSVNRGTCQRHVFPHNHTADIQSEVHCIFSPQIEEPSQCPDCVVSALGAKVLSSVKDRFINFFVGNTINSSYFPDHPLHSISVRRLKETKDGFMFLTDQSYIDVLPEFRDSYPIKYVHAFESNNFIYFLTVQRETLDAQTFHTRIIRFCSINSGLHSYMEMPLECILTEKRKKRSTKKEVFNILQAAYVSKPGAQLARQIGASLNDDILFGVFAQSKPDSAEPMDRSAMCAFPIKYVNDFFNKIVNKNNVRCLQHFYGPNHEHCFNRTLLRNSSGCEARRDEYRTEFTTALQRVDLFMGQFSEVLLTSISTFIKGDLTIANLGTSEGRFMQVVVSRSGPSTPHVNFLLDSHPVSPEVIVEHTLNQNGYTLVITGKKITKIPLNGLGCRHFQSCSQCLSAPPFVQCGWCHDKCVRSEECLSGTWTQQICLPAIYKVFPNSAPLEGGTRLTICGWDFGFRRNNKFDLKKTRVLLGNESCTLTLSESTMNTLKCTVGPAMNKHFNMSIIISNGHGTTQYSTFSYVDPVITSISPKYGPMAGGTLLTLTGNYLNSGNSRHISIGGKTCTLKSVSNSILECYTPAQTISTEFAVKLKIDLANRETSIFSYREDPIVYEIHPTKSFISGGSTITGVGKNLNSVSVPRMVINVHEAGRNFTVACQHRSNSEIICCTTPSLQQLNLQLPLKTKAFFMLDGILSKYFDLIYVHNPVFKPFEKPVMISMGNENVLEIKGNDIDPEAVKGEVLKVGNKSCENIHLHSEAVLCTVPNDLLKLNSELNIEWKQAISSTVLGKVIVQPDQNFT
monkey MET (fasMET-His), sequence (as listed by the source): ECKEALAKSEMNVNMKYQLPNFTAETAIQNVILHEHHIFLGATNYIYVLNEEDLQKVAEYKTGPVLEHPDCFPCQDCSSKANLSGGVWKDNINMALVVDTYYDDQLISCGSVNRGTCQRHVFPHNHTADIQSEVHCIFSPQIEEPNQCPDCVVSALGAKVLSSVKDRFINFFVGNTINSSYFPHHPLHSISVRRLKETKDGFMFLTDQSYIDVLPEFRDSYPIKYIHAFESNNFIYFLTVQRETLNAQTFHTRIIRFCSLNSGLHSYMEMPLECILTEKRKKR
monkey MET (fasMET-His), sequence (as listed by the source): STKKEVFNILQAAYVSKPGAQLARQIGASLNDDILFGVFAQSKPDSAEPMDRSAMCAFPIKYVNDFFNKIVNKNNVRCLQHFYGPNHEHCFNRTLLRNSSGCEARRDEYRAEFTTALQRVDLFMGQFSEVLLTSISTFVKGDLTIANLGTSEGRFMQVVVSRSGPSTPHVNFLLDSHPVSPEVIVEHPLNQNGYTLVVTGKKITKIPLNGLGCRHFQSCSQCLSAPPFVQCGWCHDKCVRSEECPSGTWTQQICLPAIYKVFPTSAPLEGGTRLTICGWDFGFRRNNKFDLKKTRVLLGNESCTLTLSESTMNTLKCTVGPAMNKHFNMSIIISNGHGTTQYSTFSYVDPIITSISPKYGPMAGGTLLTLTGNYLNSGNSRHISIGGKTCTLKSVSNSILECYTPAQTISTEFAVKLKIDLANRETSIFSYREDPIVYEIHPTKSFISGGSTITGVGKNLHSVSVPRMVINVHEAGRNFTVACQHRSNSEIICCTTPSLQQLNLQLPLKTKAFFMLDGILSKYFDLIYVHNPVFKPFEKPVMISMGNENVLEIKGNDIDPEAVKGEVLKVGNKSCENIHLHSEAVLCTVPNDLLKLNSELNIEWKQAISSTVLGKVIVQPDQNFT
T2 sequence (Q75ZY9 25-933 limits assumed): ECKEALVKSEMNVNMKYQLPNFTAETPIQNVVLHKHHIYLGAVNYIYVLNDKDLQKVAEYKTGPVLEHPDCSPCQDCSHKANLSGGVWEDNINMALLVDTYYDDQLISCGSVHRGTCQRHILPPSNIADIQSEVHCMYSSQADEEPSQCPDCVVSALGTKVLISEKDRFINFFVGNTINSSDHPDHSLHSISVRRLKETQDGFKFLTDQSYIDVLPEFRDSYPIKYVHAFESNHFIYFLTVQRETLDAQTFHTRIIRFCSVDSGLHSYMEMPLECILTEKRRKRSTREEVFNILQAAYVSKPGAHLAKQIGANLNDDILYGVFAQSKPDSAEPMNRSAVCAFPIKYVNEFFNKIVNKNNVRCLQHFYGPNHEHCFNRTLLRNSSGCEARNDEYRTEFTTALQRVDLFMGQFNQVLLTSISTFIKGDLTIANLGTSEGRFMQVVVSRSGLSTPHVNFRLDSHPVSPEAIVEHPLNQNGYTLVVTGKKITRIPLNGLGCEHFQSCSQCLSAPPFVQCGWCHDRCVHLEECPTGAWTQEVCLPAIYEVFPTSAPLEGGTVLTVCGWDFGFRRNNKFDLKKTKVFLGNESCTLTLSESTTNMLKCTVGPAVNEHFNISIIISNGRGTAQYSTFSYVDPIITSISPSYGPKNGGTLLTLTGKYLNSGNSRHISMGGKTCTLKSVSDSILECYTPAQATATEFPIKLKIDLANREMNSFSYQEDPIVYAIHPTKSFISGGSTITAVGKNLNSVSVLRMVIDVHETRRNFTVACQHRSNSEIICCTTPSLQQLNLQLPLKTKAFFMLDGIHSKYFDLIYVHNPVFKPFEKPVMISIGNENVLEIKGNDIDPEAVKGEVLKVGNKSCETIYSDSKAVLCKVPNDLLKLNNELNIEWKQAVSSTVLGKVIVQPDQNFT

Q: Which MFI (SNU-5 cells) does the source give for “Telisotuzumab analog: analog of Telisotuzumab, humanized IgG1 monoclonal antibody targeting MET; SEQ ID NO: 75 and 76 [reference compound]” here?
A: 21700

Q: And the “Percentage of Positive (endocytosis)” value (SNU-5 cells)?
A: 36.9%

Q: And the “binding to human MET” value (human MET (hMET-His) [1])?
A: showed binding affinity

Q: And the “binding to monkey MET” value (monkey MET (fasMET-His) [2])?
A: showed binding affinity

Q: What about the “binding to dog MET” value (dog MET (dMET-His)) of the same substance?
A: no binding affinity

Q: What about the MFI (HCC827 cells) of the same substance?
A: 10344

Q: And the “Positive Population” value (HCC827 cells)?
A: 0.63%

Q: And the MFI (NCI-H292 cells)?
A: 6969

Q: What about the “Positive Population” value (NCI-H292 cells) of the same substance?
A: 2.32%

Q: What about the KD [3] of the same substance?
A: No binding

Q: And the koff (human MET (hMET-His) [4])?
A: 0.0001 s⁻¹

Q: What about the kon (human MET (hMET-His) [4]) of the same substance?
A: 103000 M⁻¹ s⁻¹

Q: And the koff (monkey MET (fasMET-His) [5])?
A: 9.41e-05 s⁻¹

Q: And the kon (monkey MET (fasMET-His) [5])?
A: 62600 M⁻¹ s⁻¹

Q: What about the KD (human EGFR (hEGFR-His)) of the same substance?
A: No binding
